Test results from ChEMBL document CHEMBL1201862, “PubChem BioAssay data set” (2004).
Each block holds one compound with its values, some of them ahead of it. Active and inactive are the calls of the source.

Legend:
Assay type in all cases: functional
[1] = target: Leukocyte tyrosine kinase receptor (Homo sapiens, UniProt P29376); experiment: Navigating the Kinome. Panel member name: LTK
[2] = target: BDNF/NT-3 growth factors receptor (Homo sapiens, UniProt Q16620);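 note: NTRK2 measured as one member of a broad kinome-wide kinase profiling panel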
[3] = target: Tyrosine-protein kinase receptor TYRO3 (Homo sapiens, UniProt Q06418);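 note: TYRO3 value obtained as one member of a kinome-wide profiling panel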
[4] = target: Dual specificity protein kinase CLK4 (Homo sapiens, UniProt Q9HAZ1)
Chain of Dual specificity protein kinase CLK4 (Q9HAZ1 whole entry): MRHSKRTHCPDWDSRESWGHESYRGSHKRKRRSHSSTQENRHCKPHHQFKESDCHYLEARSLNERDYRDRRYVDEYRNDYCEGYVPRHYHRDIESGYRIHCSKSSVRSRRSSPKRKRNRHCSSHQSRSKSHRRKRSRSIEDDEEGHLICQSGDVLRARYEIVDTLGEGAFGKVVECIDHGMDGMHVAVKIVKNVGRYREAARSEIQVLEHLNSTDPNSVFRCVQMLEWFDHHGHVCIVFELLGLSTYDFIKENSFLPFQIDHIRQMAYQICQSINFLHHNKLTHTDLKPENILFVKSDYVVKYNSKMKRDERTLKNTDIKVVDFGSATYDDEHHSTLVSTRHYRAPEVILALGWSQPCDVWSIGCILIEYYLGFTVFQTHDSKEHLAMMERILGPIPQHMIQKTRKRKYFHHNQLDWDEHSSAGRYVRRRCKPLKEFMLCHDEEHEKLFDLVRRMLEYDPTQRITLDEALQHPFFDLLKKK

[5] = target: High affinity nerve growth factor receptor (Homo sapiens, UniProt P04629);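 note: NTRK1 tested as one member of a kinome-wide profiling panel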
Chain of High affinity nerve growth factor receptor (P04629 whole entry): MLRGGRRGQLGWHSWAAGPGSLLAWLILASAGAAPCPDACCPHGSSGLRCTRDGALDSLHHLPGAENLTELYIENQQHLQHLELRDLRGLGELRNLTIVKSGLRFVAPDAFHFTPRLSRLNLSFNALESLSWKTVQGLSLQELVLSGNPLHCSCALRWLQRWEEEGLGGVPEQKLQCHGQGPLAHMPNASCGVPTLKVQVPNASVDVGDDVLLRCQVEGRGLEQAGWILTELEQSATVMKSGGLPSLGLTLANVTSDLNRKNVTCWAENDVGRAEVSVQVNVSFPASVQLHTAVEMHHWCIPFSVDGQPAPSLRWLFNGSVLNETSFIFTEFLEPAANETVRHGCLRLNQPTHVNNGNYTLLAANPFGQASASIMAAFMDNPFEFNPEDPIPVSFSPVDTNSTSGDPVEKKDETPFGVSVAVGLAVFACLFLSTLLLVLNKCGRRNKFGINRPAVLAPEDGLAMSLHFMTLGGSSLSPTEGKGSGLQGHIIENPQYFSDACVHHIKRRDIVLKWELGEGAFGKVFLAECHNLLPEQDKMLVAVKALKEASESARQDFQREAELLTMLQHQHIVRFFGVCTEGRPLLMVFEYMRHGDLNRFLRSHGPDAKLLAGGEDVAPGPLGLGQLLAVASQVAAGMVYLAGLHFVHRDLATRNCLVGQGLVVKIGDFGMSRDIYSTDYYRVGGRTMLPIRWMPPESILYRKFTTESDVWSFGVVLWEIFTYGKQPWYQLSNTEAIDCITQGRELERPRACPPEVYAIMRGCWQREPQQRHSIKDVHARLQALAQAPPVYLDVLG

[6] = target: Serine/threonine-protein kinase TAO1 (Homo sapiens, UniProt Q7L7X3)
Chain of Serine/threonine-protein kinase TAO1 (Q7L7X3 whole entry): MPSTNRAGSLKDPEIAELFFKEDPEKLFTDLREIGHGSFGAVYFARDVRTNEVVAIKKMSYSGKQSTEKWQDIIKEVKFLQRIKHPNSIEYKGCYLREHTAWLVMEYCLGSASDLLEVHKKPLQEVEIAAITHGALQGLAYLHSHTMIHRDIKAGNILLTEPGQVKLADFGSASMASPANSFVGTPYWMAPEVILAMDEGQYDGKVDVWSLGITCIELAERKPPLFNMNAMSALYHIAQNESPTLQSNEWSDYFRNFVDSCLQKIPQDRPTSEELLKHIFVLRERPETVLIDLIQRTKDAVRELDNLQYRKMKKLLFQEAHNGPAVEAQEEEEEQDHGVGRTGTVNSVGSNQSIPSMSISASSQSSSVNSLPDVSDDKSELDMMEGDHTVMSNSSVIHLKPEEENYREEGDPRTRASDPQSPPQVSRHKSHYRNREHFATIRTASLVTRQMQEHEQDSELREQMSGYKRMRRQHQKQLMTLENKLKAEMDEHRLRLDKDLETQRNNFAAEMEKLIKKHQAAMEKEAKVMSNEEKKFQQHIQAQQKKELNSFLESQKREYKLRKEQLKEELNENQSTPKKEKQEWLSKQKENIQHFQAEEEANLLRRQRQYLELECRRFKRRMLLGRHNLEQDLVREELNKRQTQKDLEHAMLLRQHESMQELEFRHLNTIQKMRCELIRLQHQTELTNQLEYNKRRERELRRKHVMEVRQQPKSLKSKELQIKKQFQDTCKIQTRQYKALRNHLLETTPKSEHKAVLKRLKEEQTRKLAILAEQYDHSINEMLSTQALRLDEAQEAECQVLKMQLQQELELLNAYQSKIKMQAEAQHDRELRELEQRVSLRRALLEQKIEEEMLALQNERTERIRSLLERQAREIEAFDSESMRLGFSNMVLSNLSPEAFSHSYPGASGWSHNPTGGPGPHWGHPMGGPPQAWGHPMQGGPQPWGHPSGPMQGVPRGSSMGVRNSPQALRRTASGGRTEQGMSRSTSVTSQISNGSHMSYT

[7] = target: Inhibitor of nuclear factor kappa-B kinase subunit epsilon (Homo sapiens, UniProt Q14164); experiment: Navigating the Kinome. Panel member name: IKBKE
[8] = target: Protein kinase C theta type (Homo sapiens, UniProt Q04759); experiment: Navigating the Kinome. Panel member name: PRKCQ
[9] = target: Glycogen synthase kinase-3 alpha (Homo sapiens, UniProt P49840);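 note: GSK3A result taken from a broad kinome-wide kinase panel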
Aurora kinase A = Aurora kinase A (Homo sapiens, UniProt O14965);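 note: value from the Navigating the Kinome kinase panel profiling, panel entry STK6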
[10] = target: Dual specificity tyrosine-phosphorylation-regulated kinase 1A (Homo sapiens, UniProt Q13627);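 note: measured against DYRK1A as one member of a broad kinome profiling panel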
[11] = target: Vascular endothelial growth factor receptor 2 (Homo sapiens, UniProt P35968)
Chain of Vascular endothelial growth factor receptor 2 (P35968 whole entry): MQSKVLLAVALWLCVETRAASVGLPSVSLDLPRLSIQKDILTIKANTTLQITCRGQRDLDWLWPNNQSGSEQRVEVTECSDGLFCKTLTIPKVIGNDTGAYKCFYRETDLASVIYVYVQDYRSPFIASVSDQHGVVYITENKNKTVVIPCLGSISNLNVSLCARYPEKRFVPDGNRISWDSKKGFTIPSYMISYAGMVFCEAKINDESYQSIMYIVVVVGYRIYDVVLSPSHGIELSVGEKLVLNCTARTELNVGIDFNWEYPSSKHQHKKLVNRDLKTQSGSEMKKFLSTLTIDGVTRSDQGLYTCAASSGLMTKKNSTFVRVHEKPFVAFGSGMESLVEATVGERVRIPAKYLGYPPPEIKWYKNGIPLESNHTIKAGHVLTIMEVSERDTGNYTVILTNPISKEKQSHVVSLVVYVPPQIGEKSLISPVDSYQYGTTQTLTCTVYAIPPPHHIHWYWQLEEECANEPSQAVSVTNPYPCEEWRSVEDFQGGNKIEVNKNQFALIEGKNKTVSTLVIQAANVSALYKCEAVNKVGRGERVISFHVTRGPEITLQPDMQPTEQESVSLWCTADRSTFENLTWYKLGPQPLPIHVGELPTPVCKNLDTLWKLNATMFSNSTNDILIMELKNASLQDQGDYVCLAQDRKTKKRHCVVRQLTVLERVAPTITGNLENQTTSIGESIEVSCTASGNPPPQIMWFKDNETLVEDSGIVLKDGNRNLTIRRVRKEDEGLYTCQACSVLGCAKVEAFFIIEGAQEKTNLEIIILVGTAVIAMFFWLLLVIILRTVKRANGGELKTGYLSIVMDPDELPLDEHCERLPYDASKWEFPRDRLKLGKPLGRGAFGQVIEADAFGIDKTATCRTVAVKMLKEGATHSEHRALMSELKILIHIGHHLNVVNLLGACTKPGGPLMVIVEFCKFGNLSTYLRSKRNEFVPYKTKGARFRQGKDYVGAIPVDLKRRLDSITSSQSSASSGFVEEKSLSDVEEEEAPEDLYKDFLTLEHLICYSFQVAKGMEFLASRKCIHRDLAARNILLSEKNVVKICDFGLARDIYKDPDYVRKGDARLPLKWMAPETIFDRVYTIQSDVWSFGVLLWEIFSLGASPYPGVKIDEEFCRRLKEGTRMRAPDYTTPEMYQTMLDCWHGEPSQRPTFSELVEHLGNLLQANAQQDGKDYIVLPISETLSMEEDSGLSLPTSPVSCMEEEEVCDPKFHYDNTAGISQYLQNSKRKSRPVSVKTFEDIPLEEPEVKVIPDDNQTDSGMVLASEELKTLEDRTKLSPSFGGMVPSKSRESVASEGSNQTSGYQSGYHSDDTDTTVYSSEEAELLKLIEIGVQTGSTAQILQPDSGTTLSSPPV

[12] = target: cAMP-dependent protein kinase catalytic subunit alpha (Homo sapiens, UniProt P17612)
LIM domain kinase 1 = LIM domain kinase 1 (Homo sapiens, UniProt P53667); experiment: Navigating the Kinome. Panel member name: LIMK1
Chain of LIM domain kinase 1 (P53667 whole entry, the tested form may be a part): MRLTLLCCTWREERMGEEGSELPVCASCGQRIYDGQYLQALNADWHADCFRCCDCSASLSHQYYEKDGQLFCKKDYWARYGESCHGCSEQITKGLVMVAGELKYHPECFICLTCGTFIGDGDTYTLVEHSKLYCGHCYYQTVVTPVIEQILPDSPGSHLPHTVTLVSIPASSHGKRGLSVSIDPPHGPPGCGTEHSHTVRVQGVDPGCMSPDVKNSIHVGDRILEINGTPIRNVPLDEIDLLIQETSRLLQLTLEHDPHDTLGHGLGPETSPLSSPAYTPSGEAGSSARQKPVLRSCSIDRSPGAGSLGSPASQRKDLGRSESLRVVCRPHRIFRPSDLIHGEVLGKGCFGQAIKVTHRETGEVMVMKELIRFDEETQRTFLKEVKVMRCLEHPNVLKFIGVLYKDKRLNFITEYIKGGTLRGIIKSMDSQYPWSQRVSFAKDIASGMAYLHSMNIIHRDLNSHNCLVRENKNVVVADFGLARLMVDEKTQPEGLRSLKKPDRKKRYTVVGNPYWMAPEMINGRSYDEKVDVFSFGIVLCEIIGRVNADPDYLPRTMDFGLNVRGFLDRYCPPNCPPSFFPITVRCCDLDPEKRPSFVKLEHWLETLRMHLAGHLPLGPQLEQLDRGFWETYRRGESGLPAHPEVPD

[13] = target: Cyclin-dependent kinase 9 (Homo sapiens, UniProt P50750);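 note: value from the CDK9 entry of a kinome-spanning kinase panel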
[14] = target: Casein kinase I isoform alpha (Homo sapiens, UniProt P48729)
Chain of Casein kinase I isoform alpha (P48729 whole entry, canonical isoform): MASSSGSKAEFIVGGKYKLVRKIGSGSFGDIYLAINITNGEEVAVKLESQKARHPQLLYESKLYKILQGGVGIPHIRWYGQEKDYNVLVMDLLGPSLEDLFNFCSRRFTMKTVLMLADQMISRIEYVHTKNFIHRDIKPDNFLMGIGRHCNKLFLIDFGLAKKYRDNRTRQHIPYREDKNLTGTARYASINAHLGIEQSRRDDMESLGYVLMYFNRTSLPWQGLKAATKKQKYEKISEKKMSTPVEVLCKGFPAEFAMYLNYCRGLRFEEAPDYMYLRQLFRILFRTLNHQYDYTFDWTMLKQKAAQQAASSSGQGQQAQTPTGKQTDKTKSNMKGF

[15] = target: Serine/threonine-protein kinase Chk1 (Homo sapiens, UniProt O14757);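 note: measured as one member of a kinome-wide kinase profiling panel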
[16] = target: Dual specificity tyrosine-phosphorylation-regulated kinase 1B (Homo sapiens, UniProt Q9Y463); experiment: Navigating the Kinome. Panel member name: DYRK1B
[17] = target: Platelet-derived growth factor receptor beta (Homo sapiens, UniProt P09619);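 note: value comes from a kinome panel, with PDGFRB tested as one panel member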
[18] = target: Death-associated protein kinase 3 (Homo sapiens, UniProt O43293);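 note: measured as one member of a kinome-wide profiling panel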
Chain of Death-associated protein kinase 3 (O43293 whole entry): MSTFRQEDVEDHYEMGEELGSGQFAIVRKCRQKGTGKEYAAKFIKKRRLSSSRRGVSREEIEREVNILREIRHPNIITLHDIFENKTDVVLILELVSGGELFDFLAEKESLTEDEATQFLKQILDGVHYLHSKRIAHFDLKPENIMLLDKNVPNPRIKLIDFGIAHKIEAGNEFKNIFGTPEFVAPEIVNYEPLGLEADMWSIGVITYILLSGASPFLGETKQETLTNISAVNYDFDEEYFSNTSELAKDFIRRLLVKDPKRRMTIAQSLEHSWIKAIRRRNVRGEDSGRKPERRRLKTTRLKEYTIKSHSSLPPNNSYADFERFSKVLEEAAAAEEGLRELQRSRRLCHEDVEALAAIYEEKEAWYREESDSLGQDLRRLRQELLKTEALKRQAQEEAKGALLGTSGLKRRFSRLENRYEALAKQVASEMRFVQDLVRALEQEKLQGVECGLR

[19] = target: Macrophage colony-stimulating factor 1 receptor (Homo sapiens, UniProt P07333);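 note: value comes from the Navigating the Kinome screening panel, CSF1R member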

Ki [1]: 79.4 µM (active)
Ki [2]: 63.1 µM (active)
Ki [3]: 79.4 µM (active)
Ki [4]: 20 µM (active)
Ki [5]: 50.1 µM (active)
SMILES: Cn1c(N)nc2sccc21

Ki [6]: 6.31 µM (active)
Ki [7]: 79.4 µM (active)
Ki [8]: > 100 µM (inactive)
Ki [9]: 25.1 µM (active)
Ki (Aurora kinase A): 63.1 µM (active)
Ki [10]: > 79.4 µM (inactive)
Ki [11]: > 100 µM (inactive)
Ki [12]: > 50.1 µM (inactive)
Ki (LIM domain kinase 1): 3.16 µM (active)
Ki [13]: > 63.1 µM (inactive)
Ki [14]: 20 µM (active)
Ki [15]: 2 µM (active)
Ki [16]: 0.631 µM (active)
Ki [17]: > 79.4 µM (inactive)
Ki [4]: 0.2 µM (active)
Ki [19]: > 100 µM (inactive)
SMILES: CC(=O)n1ncc2cc(N)ccc21
Ki [18]: 5.01 µM (active)
